# Reference: ChEMBL document CHEMBL1144290, “Discovery and structure-activity relationships of novel selective norepinephrine and dual serotonin/norepinephrine reuptake inhibitors” (Bioorg Med Chem Lett, 2005)
# Tests used:
# [1] = Inhibitory constant determined against Norepinephrine transporter
# [2] = Inhibitory constant against Serotonin transporter
# [3] = Inhibitory constant against Dopamine transporter
# [4] = molecular target: Sodium-dependent dopamine transporter (Homo sapiens) (UniProt Q01959); assay: Displacement of dopamine by the compound against dopamine transporter was determined at 1000 nM
# Sodium-dependent dopamine transporter (Homo sapiens), sequence (Q01959 whole entry): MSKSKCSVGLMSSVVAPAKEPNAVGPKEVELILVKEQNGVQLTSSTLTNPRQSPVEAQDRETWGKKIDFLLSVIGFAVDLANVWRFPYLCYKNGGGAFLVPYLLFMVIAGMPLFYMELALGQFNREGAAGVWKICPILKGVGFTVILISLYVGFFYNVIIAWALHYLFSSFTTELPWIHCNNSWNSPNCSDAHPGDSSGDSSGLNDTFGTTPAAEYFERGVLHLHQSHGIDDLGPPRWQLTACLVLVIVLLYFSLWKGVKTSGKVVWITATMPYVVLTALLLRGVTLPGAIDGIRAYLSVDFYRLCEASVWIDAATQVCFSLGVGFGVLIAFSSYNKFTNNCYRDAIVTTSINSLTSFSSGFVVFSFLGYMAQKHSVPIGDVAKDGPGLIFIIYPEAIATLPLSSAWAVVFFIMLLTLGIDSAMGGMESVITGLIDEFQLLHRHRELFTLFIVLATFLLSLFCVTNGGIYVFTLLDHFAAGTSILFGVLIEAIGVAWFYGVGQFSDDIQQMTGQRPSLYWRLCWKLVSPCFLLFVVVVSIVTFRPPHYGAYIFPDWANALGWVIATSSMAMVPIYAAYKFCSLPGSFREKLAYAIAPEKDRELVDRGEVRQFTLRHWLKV
# [5] = molecular target: Sodium-dependent serotonin transporter (Homo sapiens) (UniProt P31645); assay: Displacement of serotonin by the compound against serotonin transporter was determined
# Sodium-dependent serotonin transporter (Homo sapiens), sequence (P31645 whole entry, looked up): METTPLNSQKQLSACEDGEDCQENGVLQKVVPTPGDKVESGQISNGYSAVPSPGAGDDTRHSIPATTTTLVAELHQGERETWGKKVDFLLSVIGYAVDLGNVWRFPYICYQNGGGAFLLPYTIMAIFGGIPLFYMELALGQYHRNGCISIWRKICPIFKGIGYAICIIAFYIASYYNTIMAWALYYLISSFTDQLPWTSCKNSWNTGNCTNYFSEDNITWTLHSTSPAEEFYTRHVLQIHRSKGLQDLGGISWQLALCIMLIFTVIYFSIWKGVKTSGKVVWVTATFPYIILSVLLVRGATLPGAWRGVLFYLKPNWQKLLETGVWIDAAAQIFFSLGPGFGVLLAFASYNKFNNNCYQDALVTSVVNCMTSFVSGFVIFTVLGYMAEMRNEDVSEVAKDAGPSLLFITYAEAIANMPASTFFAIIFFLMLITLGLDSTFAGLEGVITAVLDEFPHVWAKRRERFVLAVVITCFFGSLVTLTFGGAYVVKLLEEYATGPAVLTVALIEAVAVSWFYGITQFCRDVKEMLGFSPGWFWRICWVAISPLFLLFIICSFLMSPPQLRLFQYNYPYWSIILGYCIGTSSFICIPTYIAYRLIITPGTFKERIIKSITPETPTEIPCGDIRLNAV
Compound,Ki [1] [nM],Ki [2] [nM],Ki [3] [nM],Ki [4] [nM],Ki [5] [nM]
Cc1ccccc1S[C@@H](c1ccccc1)[C@@H]1CNCCO1,8.3,0.2,227,,
Cc1cccc(S[C@@H](c2ccccc2)[C@@H]2CNCCO2)c1,109,3.2,,> 200,
COc1ccccc1S[C@@H](c1ccccc1)[C@@H]1CNCCO1 (stereo in doubt; 14) [listing 1 of 2 here],10.7,1.2,,,
COc1ccccc1S[C@@H](c1ccccc1)[C@@H]1CNCCO1 (stereo in doubt; 14) [listing 2 of 2 here],,,,> 200,
Cc1ccc(S[C@@H](c2ccccc2)[C@@H]2CNCCO2)cc1,364,,,> 200,> 100
COc1ccccc1S[C@@H](c1ccccc1)[C@@H]1CNCCO1 (stereo in doubt; form 1) [listing 1 of 2 here],1.7,66.2,,,
CCOc1ccccc1O[C@@H](c1ccccc1)[C@@H]1CNCCO1,,,,> 200,> 100
COc1ccccc1S[C@@H](c1ccccc1)[C@@H]1CNCCO1 (stereo in doubt; form 2) [listing 1 of 2 here],24.6,1.5,,,
c1ccc(S[C@@H](c2ccccc2)[C@@H]2CNCCO2)cc1,17.6,36,522,,
COc1ccccc1S[C@@H](c1ccccc1)[C@@H]1CNCCO1 (stereo in doubt; form 2) [listing 2 of 2 here],,,,> 200,
COc1ccccc1S[C@@H](c1ccccc1)[C@@H]1CNCCO1 (stereo in doubt; form 1) [listing 2 of 2 here],,,,> 200,
